This data set deals with human NMD. Description: CRISPR-based forward genetic screen of the GeCKO-LtCRISPR sgRNA library in "green" Fireworks cells (FACS enrichment rounds, deep sequencing of sgRNAs). The format is cell-based. The note with it: for sgRNA abundance (%): deep sequencing reads for the sgRNA in the enriched cell population / all reads x 100, round 2, "green" Fireworks cells; for sgRNA enrichment (2nd round): reads in the enriched cell population / reads in total cells at the beginning of the 2nd round, measure of increased PTC(+) reporter fluorescence. The procedure: 1.8×10^8 (6×15 cm plates) “green” Fireworks cells were lentivirally transduced with the blasticidin-resistant GeCKO-LtCRISPR viral library (Shalem et al., Science 2014, 343:84-87) using 4.0 μm/ml of polybrene and propagated for 8-9 days in DMEM media supplemented with 10% FBS and 120 μm/ml hygromycin, 0.3 μg/ml puromycin and 3.0 μm/ml blasticidin. NMD-deficient cell populations (2×10^5 cells) were isolated from 4×10^8 transduced cells using a Bio-Rad S3e cell sorter (100 μm nozzle) and their genomic DNA was phenol-extracted. sgRNAs pools were PCR-amplified using RandomF (5′-[…] AACACCG-3′) (SEQ ID NO: 6) and RandomR (5′-[…] TAAAAC-3′) (SEQ ID NO: 7) primers and Gibson-cloned into the BsmBI-inearized LentiCRISPR (Shalem et al., Science 2014, 343:84-87) vector to obtain a lentiviral library (represented by 1.5×10^8 independent transformants) for the next enrichment round (FIG. 5C). Three rounds of GeCKO Lt-CRISPR library enrichment were conducted; 1.4×10^8 and 1.2×10^8 cells were sorted in the 2nd and 3rd rounds, respectively. sgRNAs obtained from the 2nd round were deep-sequenced and ranked (Table 1) according to their (i) overall abundance in the enriched sgRNA pool and (ii) enrichment over the starting sgRNA population in this round (since successful enrichment increases both of these numbers).
The Fireworks system was tested with the CRIPR-based knockout screening using the lentiviral GeCKO-lentiCRISPR sgRNA library (Shalem et al., Science 2014, 343:84-87), which contains 64,751 sgRNAs targeting 18,080 human genes. Ease of amplification of chromosomally-integrated sgRNAs by PCR allows multiple rounds of sgRNA library enrichment (FIG. 5C) as sgRNAs are iteratively re-transduced into the original Fireworks cell line after the each round of FACS selection in a SELEX-like (Tuerk and Gold, Science 1990, 249:505-510) manner. Fireworks-driven FACS throughput permits completion of one FACS cycle of genome-wide GeCKO library screening with nearly 800-fold library coverage in less than one hour. […] Importantly, sgRNA-specific effects are amplified, whereas cell-specific fluorescence noise is completely reset at the beginning of each sgRNA enrichment round (FIG. 5C), effectively eliminating false-positives arising from spontaneous and lentiviral insertion-induced (and therefore sgRNA-independent) mutations affecting reporters or the NMD pathway. An increase in the population of cells with a defect in NMD becomes evident during FACS rounds 2 and 3 of sgRNA library enrichment, as shown in FIG. 5D for the GeCKO-lentiCRISPR (Shalem et al., Science 2014, 343:84-87) library in the “green” Fireworks cell line. Here, sorting gates were chosen so as to collect no more than 0.16% of the negative cell population.
The pool of sgRNAs isolated from round 2 (FIG. 5C, 5D) of NMD-deficient population enrichment was deep sequenced to determine (i) the overall abundance of each sgRNA in the enriched pool and (ii) the enrichment factor for each surviving sgRNA over the starting sgRNA pool at this round. Here, the sgRNA enrichment factor serves as a measure of the increased fluorescence of the PTC(+) Fireworks reporter achieved by that sgRNA. The top 24 most abundant sgRNAs (of 64,751 sgRNAs originally present in the GeCKO library), which attained enrichment scores higher than 10, are listed in Table 1 along with their intended (Shalem et al., Science 2014, 343:84-87) gene targets.

This is an account of results in US11060153B2, “Fluorescence amplification method for forward genetic discovery of factors in human mRNA degradation” (Yale University, priority 2016, dated 2021).

“10 (TGATTACGTCCTCCACCTCG; expressed or natural sequence) [compound 10]”: the “sgRNA abundance (%)” value is reported as 1.081% and the “sgRNA enrichment (2nd round)” value was 47.0.
The like results for “24 (TCACGCTTCACGCTGACAGT; expressed or natural sequence) [compound 24]” were, in that order, 0.083% and 80.0.
As to “13 (AGTGTCCTCCTTAGCTCTGC; expressed or natural sequence) [compound 13]”, the “sgRNA abundance (%)” value was determined as 0.440% and the “sgRNA enrichment (2nd round)” value amounted to 33.8.
The like results for “27 (GAAAGACTGAGGAGCTGCTG; expressed or natural sequence) [compound 27]” were, in that order, 0.062% and 38.0.
The like results for “31 (GCGCCCAGCTGCCAACACCA; expressed or natural sequence) [compound 31]” were, in that order, 0.036% and 53.9.
Turning to “25 (TGCTTTGTGTTTCTTTACAC; expressed or natural sequence) [compound 25]”, the “sgRNA abundance (%)” value worked out at 0.083% and the “sgRNA enrichment (2nd round)” value is on record as 17.0.
Take “28 (TTCAAACTAGTAAGCAACAC; expressed or natural sequence) [compound 28]”: the “sgRNA abundance (%)” value came to 0.054% and the “sgRNA enrichment (2nd round)” value is 18.4.
The corresponding values for “23 (CTCAACCGATTCCTTAGACG; expressed or natural sequence) [compound 23]” are 0.125% and 19.5.
The like results for “16 (GGATGACCAAGACGACATCA; expressed or natural sequence) [compound 16]” were, in that order, 0.262% and 18.3.
As for “32 (AGCCCATAATGTACCAGTGC; expressed or natural sequence) [compound 32]”, the “sgRNA abundance (%)” value is reported as 0.033% and the “sgRNA enrichment (2nd round)” value came to 14.4.
The like results for “15 (ACGCACCTGGTTGCTGGTAT; expressed or natural sequence) [compound 15]” were, in that order, 0.265% and 54.7.
In the case of “26 (TTAGCATCAGCTACTGCCAG; expressed or natural sequence) [compound 26]”, the “sgRNA abundance (%)” value worked out at 0.076% and the “sgRNA enrichment (2nd round)” value stood at 14.2.
The corresponding values for “20 (CGCATTGAAAACGTTTGCCG; expressed or natural sequence) [compound 20]” are 0.153% and 18.4.
The like results for “33 (TACCTATGTGCGTCAGCAGC; expressed or natural sequence) [compound 33]” were, in that order, 0.023% and 49.5.
On to “12 (AGTGTCCTCCTTAGCTCTGC; expressed or natural sequence) [compound 12]”, for which the “sgRNA abundance (%)” value was 0.872% and the “sgRNA enrichment (2nd round)” value came out at 118.7.
The corresponding values for “21 (GGTACCTTCACTGGAGCCAC; expressed or natural sequence) [compound 21]” are 0.132% and 16.1.
The corresponding values for “17 (CTATGAGGGGGTCAGTGACA; expressed or natural sequence) [compound 17]” are 0.232% and 18.3.
The corresponding values for “14 (GTTCTCTGATAATCAGAATG; expressed or natural sequence) [compound 14]” are 0.439% and 14.7.
Turning to “19 (CCGTGACATCACAGACCCGT; expressed or natural sequence) [compound 19]”, the “sgRNA abundance (%)” value is 0.176% and the “sgRNA enrichment (2nd round)” value is 21.2.
As for “30 (TCACATCGGCAGCCACCCGT; expressed or natural sequence) [compound 30]”, the “sgRNA abundance (%)” value came to 0.043% and the “sgRNA enrichment (2nd round)” value came out at 30.7.
The corresponding values for “29 (TAAGTTGTCAGAAAACATGA; expressed or natural sequence) [compound 29]” are 0.054% and 17.1.
The corresponding values for “22 (TATGTCTTACCAGAAGCTGC; expressed or natural sequence) [compound 22]” are 0.132% and 23.3.
The corresponding values for “11 (AGGTCCACTCACCATTGGAG; expressed or natural sequence) [compound 11]” are 0.888% and 113.9.
In the case of “18 (TGAGCACATACTCTTCACAC; expressed or natural sequence) [compound 18]”, the “sgRNA abundance (%)” value is 0.180% and the “sgRNA enrichment (2nd round)” value was 102.2.
